Results on 1 compound are retold here after patent US11911442B2, “Use of soluble pro(renin) receptor to treat metabolic disorders and related conditions” (priority 2017, dated 2024).

The subject of test [1] is PRR. Briefly: PRR protein expression and sPRR release in mpkCCD cells. Type of test: cell-based, murine. As to conditions: 10 μM, 24 h. The method, then:
The effect of […] on PRR expression was tested in […] cells. These cells were grown to confluence in six-well plates. After 12-h serum deprivation, the cells were treated with vehicle or 10 μM TO901317 for 24 h and then were harvested for analysis of PRR expression and sPRR release. In a separate experiment, […] cells at 50% density were transiently transfected with a construct containing the luciferase gene under the control of the 2,016-bp 5' flanking region of the PRR gene. Upon confluence, the transfected cells were treated for 24 h with vehicle or 10 μM TO901317 and then were harvested for analysis of luciferase activity. Urinary or medium sPRR was determined using a commercially sPRR enzyme immunoassay (EIA) kit (catalog no. JP27782; Immuno-Biological Laboratories) according to the manufacturer's instructions. Renal tissues were lysed and subsequently sonicated. Protein concentrations were determined using Coomassie reagent. Forty micrograms of protein from each sample were denatured in boiling water, separated by SDS/PAGE, and transferred onto nitrocellulose membranes. Blots were blocked 1 h with 5% nonfat dry milk in Tris-buffered saline (TBS), followed by overnight incubation with primary antibody. […] The blots were quantitated by using Image-Pro Plus (Media Cybernetics). […]

Test [2] relates to pGL3-PRR. Kind of test: PRR-luciferase (pGL3-PRR) reporter assay in mpkCCD cells. Type of test: cell-based, murine. The note with it: transfected mpkCCD cells, 10 μM, 24 h. Here is the method:
The effect of […] on PRR expression was tested in […] cells. These cells were grown to confluence in six-well plates. After 12-h serum deprivation, the cells were treated with vehicle or 10 μM TO901317 for 24 h and then were harvested for analysis of PRR expression and sPRR release. In a separate experiment, […] cells at 50% density were transiently transfected with a construct containing the luciferase gene under the control of the 2,016-bp 5' flanking region of the PRR gene. Upon confluence, the transfected cells were treated for 24 h with vehicle or 10 μM TO901317 and then were harvested for analysis of luciferase activity. Genomic DNA was extracted from rat tail using a Tissue DNA kit ([…]-01; Promega). A 2,016-bp fragment of the 5' flanking region of the PRR gene (GenBank accession no. NM_001007091; 1,941±75 bp) was amplified from the rat genomic DNA by PCR and subcloned to the pGL3-Basic reporter vector (Promega) using NheI and BgIII restriction sites; this construct was termed “pGL3-PRR.” A 2,084-bp fragment of the 5' flanking region of the AQP2 gene (GenBank accession no. […] Qiagen). […] The vehicle-treated group served as a control. The luciferase activities were measured using a luciferase assay system (Promega), and luminescence was detected by using an illuminometer (BMG FLUOstar OPTIMA).
For orientation: A reporter such as luciferase makes a cellular process visible.

Test [3] concerns C57BL6 mice. Kind of test: TO901317-induced diabetes insipidus in C57/BL6 mice. Type of test: in vivo, mouse. Here is the method:
FIGS. 9A-9I show an initial characterization of diuretic and PRR-inhibitory actions of TO901317 in vivo and in vitro. […] The mice receiving vehicle treatment served as a control. At the end of experiment, 24-h urine collection was performed, followed by analysis of urinary sPRR excretion by ELISA and renal PRR expression by immunoblotting. (A) Urine output (n=30 mice per group). (B) Urinary osmolality (n=15 mice per group). (C) Immunoblotting analysis of renal PRR expression (n=15 mice per group). (D) Densitometric analysis of the immunoblot in C. (E) ELISA analysis of urinary sPRR (n=8 mice per group). (F-I) The effect of TO901317 on PRR expression in cultured CD cells. mpkCCD cells were exposed to vehicle or 10 μM TO901317 for 24 h. The cell lysates were subjected to immunoblotting analysis of PRR protein expression, and the medium was assayed for sPRR concentration by using ELISA and normalized by protein content. In a separate experiment, the cells were transfected with a PRR-luciferase construct, allowed to grown to confluence, and then were treated with vehicle or 10 μM TO901317 for 24 h. (F) Immunoblotting analysis of PRR (n=15 per group). (G) Densitometric analysis of the immunoblot in […]. (H) ELISA analysis of medium sPRR (n=10 per group). (I) The luciferase assay (n=5 per group).
(A) Urine output (n=8 mice per group). (B) Water intake (n=8 mice per group). (C) Water balance (n=8 mice per group). (D) Urinary osmolality (n=8 mice per group). (E) Het (n=8 mice per group).
AQP2 expression was analyzed by immunoblotting and immunostaining. Urinary renin activity was determined by measuring AngI generation, and urinary prorenin/renin concentration was determined by ELISA. (A) Immunoblotting analysis of AQP2 expression (n=15 mice per group). (B) Densitometric analysis of the immunoblots in A. (C) Urinary renin activity (n=8 mice per group). (D) Urinary prorenin/renin excretion (n=8 mice per group). (E) Schematic illustration of the mechanism by which the LXR agonist TO091317 (TO) suppresses PRR transcription and induces DI. LXRs bound to TO091317 function as a […] repressor for the PRR gene, leading to a reduced PRR/sPRR level that decreases AQP2 expression, ultimately causing DI.
Besides their well-recognized role in regulating lipid and glucose metabolism, LXRs are potential regulators of the RAS and fluid balance. […] In the initial experiment, the effects of the LXR agonist TO901317 on fluid homeostasis and on renal PRR and urinary renin levels were examined in mice. A 7-d treatment with TO901317 in C57BL6 mice reduced body weight (32.36±0.63 vs. 28.61±0.36 g, P<0.05) and food intake (4.08±0.19 vs. 3.54±0.15 g, P<0.05), although to a lesser extent. […] The expression of renal PRR protein and the excretion of urinary sPRR were examined by immunoblotting and ELISA, respectively.
In the subsequent experiment, a more detailed analysis of TO901317-induced DI was performed and the causal role of suppressed renal PRR was further examined in this phenomenon. This experiment comprised three groups: control, TO901317-treated, and TO901317+sPRRHis-treated mice. […] Of note, water balance was determined by subtracting urine volume from water intake. AQP2, a major water channel on the apical membrane of the CD, plays a key role in determining urine-concentrating capability. […] ELISA was also performed to determine the prorenin/renin concentration in the urine. Although urinary prorenin/renin excretion was suppressed by TO901317, it was unaffected by sPRRHis (FIG. 11D). […] FIG. 11E provides a schematic illustration of the mechanism by which TO901317 induces DI. Upon binding to TO901317, LXRs function as a transcriptional repressor to inactivate PRR transcription. The reduced PRR/sPRR levels down-regulate AQP2 expression, leading to DI.
Male 10- to 12-wk-old SD rats and C57BL6 mice were purchased from Charles River Laboratories and the Jackson Laboratory, respectively. All animals […] 50 mg kg body weight-1·d-1. […]

In the case of `O=S(=O)(c1ccccc1)N(CC(F)(F)F)c1ccc(C(O)(C(F)(F)F)C(F)(F)F)cc1` [TO901317], the “reduction of medium sPRR” value in test [1] (ELISA) is recorded as 60%. The “reduction of PRR protein expression” value in test [1] (immunoblotting) is on record as 85%. Besides, in test [2], the “suppression of luciferase activity (pGL3-PRR)” value came to 76%. The “urine output, water intake, water balance, urinary osmolality, Hct” value in test [3] (C57/BL6 mice, TO901317 alone, 7 d) is “polyuria, polydipsia, decreased water balance, hypoosmotic urine, and plasma volume contraction”. Moreover, in test [3] (C57BL6 mice, 7-d treatment), the urinary osmolality result was “hypoosmotic urine” and the urine output result is on record as “severe polyuria”. Also, in test [3] (C57BL6 mice, 7-d treatment, ELISA), the “urinary sPRR excretion” value is “suppressed consistently”. The “renal PRR expression” value in test [3] (C57BL6 mice, 7-d treatment, immunoblotting) is recorded as “suppressed consistently”. This compound gave a food intake in test [3] (C57BL6 mice, 7-d treatment, control 4.08±0.19, P<0.05) of 3.54 ± 0.15 g. This compound also returned a body weight in test [3] (C57BL6 mice, 7-d treatment, control 32.36±0.63, P<0.05) of 28.61 ± 0.36 g. The “urinary renin activity (generation of AngI)” value in test [3] (TO901317 alone, 7 d) was “suppressed”. Besides, the urinary prorenin/renin excretion entry in test [3] (TO901317 alone, 7 d, ELISA) is recorded as “suppressed”. Also, in test [3] (TO901317 alone, 7 d, immunoblotting), the “renal AQP2 expression” value is “significantly reduced”.
